{
  "source": "patent EP0020230A2",
  "about": "“p-Biphenyl-4-methyl-2-butenoic acids, process for their preparation, pharmaceutical compositions containing them and their use” (PIERRE FABRE S.A., priority 1979, dated 1980)",
  "key": {"[1]": {"system": "injection de phényl benzoquinone", "assay": "analgesic activity, phenylbenzoquinone test (Siegmund et al.)", "type": "in vivo", "method": "L'activité antalgique a été étudiée selon Siegmund et Coll.\nLes composés sont administrés par voie orale 30 minutes avant l'injection de phényl benzoquinone."}, "[2]": {"assay": "acute oral toxicity (LD50, method of Miller and Tainter)", "conditions": "in vivo, mouse about 20 g, read-out: DL 50 voie orale", "text": "L'étude de la toxicité a été effectuée chez la souris conventionnelle pesant environ 20 grammes..\nLes substances ont été administrées par voie orale, la DL 50 est calculée suivant la méthode de L.C. Miller et M.L. Tainter, Proc. Soc. Exper. Biol. Med., 1944, 57, 261."}, "[3]": {"system": "granulome aux pellets de coton", "assay": "cotton pellet granuloma (Meier, Schuler, Desaulles)", "type": "in vivo", "conditions": "120 h; dose from which a clear reduction is seen; results read after 5 days; read-out: réduction nette du poids du granulome à partir de", "method": "Les résultats obtenus sur le granulome aux pellets de coton selon la technique de R. Meier, Schuler et Desaulles - Experientia 1950, 6, 469, permettent de mettre en évidence une réduction nette du poids du granulome à partir de 10 mg/kg pour le F 1920 et le F 2073.\nLes résultats sont relevés au bout de 5 jours et aucune modification n'est observée, comparativement aux témoins, en ce qui concerne"}, "[4]": {"system": "oedème provoqué par injection de carragénine dans la patte du rat", "assay": "carrageenan-induced paw oedema (Winter, Risley, Nuss)", "type": "in vivo", "conditions": "oral, suspension in tween-water, 2 hours before the test, read-out: ED 50 (dose diminuant de 50 % le volume de la patte)", "text": "Les propriétés anti-inflammatoires ont été révélées par le test de l'oedème provoqué par injection de carragénine dans la patte du rat selon la technique de C. Winter, E. Risley, et G. Nuss. Proc. Soc. Exper. Biol. Med., 1962, 111, 544-547.\nLes produits ont été administrés par voie orale en suspension dans le mélange tween-eau 2 heures avant l'expérimentation."}, "[5]": {"conditions": "oral, 30 minutes before injection of phenylbenzoquinone, read-out: DE 50 (the source's name)"}},
  "note": "Where two headings read alike, the source gives them in different places.",
  "data": [
    {"compound": "CC(=O)Oc1ccccc1C(=O)O", "note": "[Acide acétyl salicylique, reference compound]", "values": [
      {"measurement": "ED50", "setting": "[1]; po, read-out: DE 50", "result": 100, "unit": "mg/kg"}
    ]},
    {"compound": "CC(/C=C/c1ccc(-c2ccccc2F)cc1)C(=O)O", "note": "(stereo not drawn) [Acide trans orthofluorophényl-4' phényl-4 méthyl-2 buten-3 oïque]", "values": [
      {"measurement": "LD50", "setting": "[2]", "result": 1000, "unit": "mg/kg"},
      {"measurement": "ED50", "setting": "[1]; [5]", "result": 5, "unit": "mg/kg"}
    ]},
    {"compound": "CC(/C=C/c1ccc(-c2ccccc2)cc1)C(=O)O", "note": "(stereo not drawn) [F 1920, acide trans p-biphényl-4, méthyl-2 buten-3 oïque]", "values": [
      {"measurement": "minimal effective dose", "setting": "[3]", "result": "≥ 10", "unit": "mg/kg"},
      {"measurement": "LD50", "setting": "[2]", "result": 500, "unit": "mg/kg"},
      {"measurement": "ED50", "setting": "[1]; [5]", "result": 10, "unit": "mg/kg"},
      {"measurement": "ED50", "setting": "[4]", "result": 25, "unit": "mg/kg"}
    ]},
    {"compound": "CC(/C=C/c1ccc(-c2ccccc2Cl)cc1)C(=O)O", "note": "(stereo not drawn) [F 2073, acide trans orthochlorophényl-4' phényl-4 méthyl-2 buten-3 oïque]", "values": [
      {"measurement": "minimal effective dose", "setting": "[3]", "result": "≥ 10", "unit": "mg/kg"},
      {"measurement": "LD50", "setting": "[2]", "result": 750, "unit": "mg/kg"},
      {"measurement": "ED50", "setting": "[1]; [5]", "result": 7, "unit": "mg/kg"},
      {"measurement": "ED50", "setting": "[4]", "result": 15, "unit": "mg/kg"}
    ]},
    {"compound": "O=C(OCC(O)CO)c1ccccc1Nc1ccnc2cc(Cl)ccc12", "note": "(stereo not drawn) [Glafénine, reference compound]", "values": [
      {"measurement": "ED50", "setting": "[1]; [5]", "result": 36, "unit": "mg/kg"}
    ]}
  ]
}
